Measurements reported in patent US20220039384A1, “SELECTIVE WEED CONTROL WITH HALAUXIFEN OR 4-AMINO-3-CHLORO-5-FLUORO-6-(4-CHLORO-2-FLUORO-3-METHOXYPHENYL) PYRIDINE-2-CARBOXYLIC ACID OR DERIVATIVES THEREOF IN VINEYARDS OR PERENNIAL CROPS” (Corteva Agriscience LLC, priority 2013, published 2022).

What was measured:
Assay type in all cases: in vivo
[1] = test system: AMSIN (Amsinckia intermedia, coast fiddleneck); assay: Field trial, pre-emergence application (February), California vineyards: visual weed control
Excerpt: (§1) As used herein, selective pre- and post-emergence control of undesirable vegetation means preventing, reducing, killing, or otherwise adversely modifying the development of the undesirable vegetation in the presence of crop plants with limited adverse effect on the crop plants. For example, a broadleaf weed control of 80% (rated visually) with crop injury of less than or equal to 20% (rated visually) would constitute selective control. In some embodiments the adverse effect on crop plants is limited to less than 10% visually rated crop injury. Visual crop injury is a composite rating accounting for all phytotoxic effects including chlorosis, necrosis, growth inhibition, epinasty, delays in maturity and seed or fruit deformity. Visual weed control is a composite rating accounting for reductions in pest plant biomass and/or stand reduction.
(§2) Small plot research experiments were conducted in Fresno, Calif., USA to evaluate the pre-emergence and post-emergence herbicidal weed control activity and the vines crop tolerance to pre-emergence and post-emergence application of Compound I and Compound II to the weeds. Application water volume of 100 to 187 liters per hectare (L/ha) was used for all experiments. All treatments were applied with a standard small plot carbon dioxide (CO2) backpack sprayer. All treatments were tank-mixed with Crop Oil Concentrate (COC), a well known adjuvant, at 2.34 L/ha. Experimental emulsifiable concentrate (EC) formulations were used for Compounds I and II. The dimethylammonium (DMA) salt of glyphosate was used in all trials. Pindar® GT is a commercial formulation containing a pre-mix of penoxsulam+oxyfluorfen (10+476 grams of active ingredient per liter (g ai/L), respectively). Vine crop stage was dormant (no leaves on the vines during the winter) or early spring growth at the time of Compound I or Compound II application. Generally, weeds were not emerged for the pre-emergence treatments or were at the two to six-leaf stage at the time of the post-emergence herbicide application.
(§3) Tables 1, 2 and 6 provide weed control results from pre-emergence applications of Compounds I and/or II prior to weed emergence; Tables 4, 7 and 8 provide weed control results from post-emergence applications of Compounds I and/or II applied to actively growing weeds; Tables 3 and 5 provide vine response data from pre-emergence and post-emergence applications of Compound I respectively.

[2] = test system: CAPBP (Capsella bursa-pastoris, Shepherd's purse); assay: as above
Excerpt: as §1, §2, §3

[3] = test system: CLNCM (Calandrinia ciliata, rock purslane); assay: as above
Excerpt: as §1, §2, §3

[4] = test system: EROCI (Erodium cicutarium, redstem filaree); assay: Field trial, post-emergence directed spring application (March), California vineyards: visual weed control
Excerpt: as §1, §2, §3

[5] = test system: MALPA (Malva parviflora, smallflower malva); assay: as above
Excerpt: as §1, §2, §3

[6] = test system: MEDPO (Medicago polymorpha, California burclover); assay: as above
Excerpt: as §1, §2, §3

[7] = test system: STEME (Stellaria media, common chickweed); assay: as above
Excerpt: as §1, §2, §3

[8] = test system: AMARE (Amaranthus retroflexus, redroot pigweed); assay: Field trial, post-emergence directed dormant application (December), California vineyards: visual weed control
Excerpt: as §1, §2, §3

[9] = test system: AMSIN (Amsinckia intermedia, coast fiddleneck); assay: as above
Excerpt: as §1, §2, §3

[10] = test system: CAPBP (Capsella bursa-pastoris, Shepherd's purse); assay: as above
Excerpt: as §1, §2, §3

[11] = test system: CHEAL (Chenopodium album, common lambsquarters); assay: as above
Excerpt: as §1, §2, §3

[12] = test system: IPOSS (Ipomoea spp, morningglory); assay: as above
Excerpt: as §1, §2, §3

Compound: COc1c(Cl)ccc(-c2nc(C(=O)OCc3ccccc3)c(Cl)c(N)c2F)c1F [II-Bn, benzyl 4-amino-3-chloro-5-fluoro-6-(4-chloro-2-fluoro-3-methoxyphenyl)pyridine-2-carboxylate]
- % Visual Control 48 DAA AMSIN ([1]; 5 g ai/ha): 0%
- % Visual Control 48 DAA AMSIN ([1]; 10 g ai/ha): 33.3%
- % Visual Control 48 DAA AMSIN ([1]; 20 g ai/ha): 40%
- % Visual Control 48 DAA AMSIN ([1]; 40 g ai/ha): 87.3%
- % Visual Control 48 DAA AMSIN ([1]; 50 g ai/ha): 84.3%
- % Visual Control 48 DAA CAPBP ([2]; 5 g ai/ha): 0%
- % Visual Control 48 DAA CAPBP ([2]; 10 g ai/ha): 60%
- % Visual Control 48 DAA CAPBP ([2]; 20 g ai/ha): 76.7%
- % Visual Control 48 DAA CAPBP ([2]; 40 g ai/ha): 100%
- % Visual Control 48 DAA CAPBP ([2]; 50 g ai/ha): 96.7%
- % Visual Control 48 DAA CLNCM ([3]; 5 g ai/ha): 0%
- % Visual Control 48 DAA CLNCM ([3]; 10 g ai/ha): 40%
- % Visual Control 48 DAA CLNCM ([3]; 20 g ai/ha): 56.7%
- % Visual Control 48 DAA CLNCM ([3]; 40 g ai/ha): 90%
- % Visual Control 48 DAA CLNCM ([3]; 50 g ai/ha): 96.7%
- % Visual Control 59 DAA EROCI ([4]; 5 g ai/ha): 81.7%
- % Visual Control 59 DAA EROCI ([4]; 10 g ai/ha): 85%
- % Visual Control 59 DAA EROCI ([4]; 20 g ai/ha): 85%
- % Visual Control 59 DAA EROCI ([4]; 40 g ai/ha): 94.3%
- % Visual Control 59 DAA EROCI ([4]; 50 g ai/ha): 96%
- % Visual Control 59 DAA MALPA ([5]; 5 g ai/ha): 61.9%
- % Visual Control 59 DAA MALPA ([5]; 10 g ai/ha): 83.4%
- % Visual Control 59 DAA MALPA ([5]; 20 g ai/ha): 90%
- % Visual Control 59 DAA MALPA ([5]; 40 g ai/ha): 95%
- % Visual Control 59 DAA MALPA ([5]; 50 g ai/ha): 96.7%
- % Visual Control 59 DAA MEDPO ([6]; 5 g ai/ha): 100%
- % Visual Control 59 DAA MEDPO ([6]; 10 g ai/ha): 100%
- % Visual Control 59 DAA MEDPO ([6]; 20 g ai/ha): 100%
- % Visual Control 59 DAA MEDPO ([6]; 40 g ai/ha): 100%
- % Visual Control 59 DAA MEDPO ([6]; 50 g ai/ha): 100%
- % Visual Control 59 DAA STEME ([7]; 5 g ai/ha): 70%
- % Visual Control 59 DAA STEME ([7]; 10 g ai/ha): 75%
- % Visual Control 59 DAA STEME ([7]; 20 g ai/ha): 84.3%
- % Visual Control 59 DAA STEME ([7]; 40 g ai/ha): 94.3%
- % Visual Control 59 DAA STEME ([7]; 50 g ai/ha): 97.3%
- % Visual Control 57 DAA AMARE ([8]; 5 g ai/ha): 100%
- % Visual Control 57 DAA AMARE ([8]; 10 g ai/ha): 95%
- % Visual Control 57 DAA AMARE ([8]; 20 g ai/ha): 100%
- % Visual Control 57 DAA AMARE ([8]; 40 g ai/ha): 100%
- % Visual Control 57 DAA AMARE ([8]; 50 g ai/ha): 100%
- % Visual Control 57 DAA AMSIN ([9]; 5 g ai/ha): 56.7%
- % Visual Control 57 DAA AMSIN ([9]; 10 g ai/ha): 96.7%
- % Visual Control 57 DAA AMSIN ([9]; 20 g ai/ha): 86.7%
- % Visual Control 57 DAA AMSIN ([9]; 40 g ai/ha): 100%
- % Visual Control 57 DAA AMSIN ([9]; 50 g ai/ha): 100%
- % Visual Control 57 DAA CAPBP ([10]; 5 g ai/ha): 100%
- % Visual Control 57 DAA CAPBP ([10]; 10 g ai/ha): 100%
- % Visual Control 57 DAA CAPBP ([10]; 20 g ai/ha): 100%
- % Visual Control 57 DAA CAPBP ([10]; 40 g ai/ha): 100%
- % Visual Control 57 DAA CAPBP ([10]; 50 g ai/ha): 100%
- % Visual Control 57 DAA CHEAL ([11]; 5 g ai/ha): 96.7%
- % Visual Control 57 DAA CHEAL ([11]; 10 g ai/ha): 100%
- % Visual Control 57 DAA CHEAL ([11]; 20 g ai/ha): 100%
- % Visual Control 57 DAA CHEAL ([11]; 40 g ai/ha): 100%
- % Visual Control 57 DAA CHEAL ([11]; 50 g ai/ha): 100%
- % Visual Control 57 DAA IPOSS ([12]; 5 g ai/ha): 55%
- % Visual Control 57 DAA IPOSS ([12]; 10 g ai/ha): 46.7%
- % Visual Control 57 DAA IPOSS ([12]; 20 g ai/ha): 66.7%
- % Visual Control 57 DAA IPOSS ([12]; 40 g ai/ha): 66.7%
- % Visual Control 57 DAA IPOSS ([12]; 50 g ai/ha): 97.3%

Compound: O=C(O)CNCP(=O)(O)O [Glyphosate, glyphosate, reference compound]
- % Visual Control 48 DAA AMSIN ([1]; 1680 g ae/ha): 0%
- % Visual Control 48 DAA CAPBP ([2]; 1680 g ae/ha): 0%
- % Visual Control 48 DAA CLNCM ([3]; 1680 g ae/ha): 0%
- % Visual Control 59 DAA EROCI ([4]; 1680 g ae/ha): 91%
- % Visual Control 59 DAA MALPA ([5]; 1680 g ae/ha): 86.7%
- % Visual Control 59 DAA MEDPO ([6]; 1680 g ae/ha): 100%
- % Visual Control 59 DAA STEME ([7]; 1680 g ae/ha): 93.3%
- % Visual Control 57 DAA AMARE ([8]; 1680 g ae/ha): 0%
- % Visual Control 57 DAA AMSIN ([9]; 1680 g ae/ha): 100%
- % Visual Control 57 DAA CAPBP ([10]; 1680 g ae/ha): 99.3%
- % Visual Control 57 DAA CHEAL ([11]; 1680 g ae/ha): 95%
- % Visual Control 57 DAA IPOSS ([12]; 1680 g ae/ha): 51.7%
